# Source: US20210139435A1, “PROSTAGLANDIN ANALOGS AND USES THEREOF” (Lifex Biolabs, Inc., priority 2019, published 2021)
# Target: T1, mouse Nurr1 full-length (Mus musculus, UniProt Q06219)
# T1 construct: pcDNA3.1 Myc/His mouse Nurr1 full-length construct; expressed in transfected cells; host or cells: SK-N-BE2C
# Test: Luciferase reporter gene assay for Nurr1 transcriptional activity in SK-N-BE2C cells
# Assay type: cell-based
# Conditions: relative activity over control (luminescence value; 1.0)
# Experimental: To investigate whether the PG analogs of the present invention activate Nurr1 function, the inventors of the present invention employed an reporter gene assay and examined the transcriptional activation as described in Kim, C.-H. et al., Proceedings of the National Academy of Sciences 112, 8756-8761, doi:10.1073/pnas.1509742112 (2015).
# The gene assay was performed by Luciferase assay as described below:
# [Protocol for Luciferase Assay to Determine Nurr1 Transcriptional Activity] • 1. SK-N-BE2C cells were maintained in HyClone™ DMEM High Glucose (Cat. No.: SH30022.01) with 10% (v/v) fetal bovine serum (FBS), 100 units/ml penicillin and 100 μg/ml streptomycin. • 2. Seed 1.5×10^5 SK-N-BE2C cells/well into a 24-well plate and incubate at 37° C. with 5% CO2 for 24 hours. • 3. After 24 hours, transfect cells with pcDNA3.1 Myc/His mouse Nurr1 full-length construct, firefly luciferase reporter vector (pGL-3 basic from Promega, Cat. No.:E1751; with appropriate response element cloned in) and Renilla luciferase control vector (pRL-null from Promega, Cat. No.:E2271) in the ratio of 8:1:1 (Nurr1: firefly: renilla) or 400 ng, 50 ng and 50 ng respectively, amounting to a total of 500 ng in the 50 μl transfection mix for 1 well. • 4. To make the transfection mix, first prepare the DNA with P3000 reagent by adding the appropriate amount of DNA with 1 μl P3000 reagent and top up with Opti-MEM® I Reduced-Serum Media (from ThermoFisher Scientific [Cat. No.: 31985070]) to 25 μl. Incubate for 5 minutes at room temperature. • 5. Make another mix consisting of 1 μl Lipofectamine 3000 reagent with 24 μl Opti-MEM® I Reduced-Serum Media per well. Add this Lipofectamine mix to the previous DNA-P3000 mix (after the previous 5 minute incubation) and incubate them for 15 minutes at room temperature. [P3000:Lipofectamine=1:1]. • 6. In the meantime, change the media in the sample wells with fresh DMEM media without antibiotics. • 7. After 15 minutes incubation, add the 50 μl transfection mix into each well and incubate the plate for 24 hours at 37° C. with 5% CO2. • 8. After 24 hours, change the media to normal DMEM media with antibiotics and add various doses of compounds into designated wells and incubate the plate for another 24 hours at 37° C. with 5% CO2. • 9. Following the 24-hour incubation period, luciferase assay can be conducted using Dual-Glo Luciferase® kit from Promega (Cat. No.: E2920). • 10. Lyse each tested wells for 15 minutes with 75 μl of passive lysis buffer provided in the Dual-Luciferase® kit from Promega (Cat. No.: E1910). [Alternatively, add 75 μl of PBS and 75 μl of Dual-Glo® Luciferase Reagent and incubate for 10 minutes at room temperature (cover the plate with foil to protect from light). Transfer the entire sample in each well to a Greiner CELLSTAR® 96-well white polystyrene plate then proceed to step 13]. • 11. After 15 minutes, transfer each lysed sample to a Greiner CELLSTAR® 96-well white polystyrene plate (Cat. No.:655083). • 12. To each well of lysed cells, add 75 μl of Dual-Glo® Luciferase Reagent and incubate for 10 minutes at room temperature (cover the plate with foil to protect from light). • 13. Set the measurement with a 10-second integrated measurement period. • 14. Add 75 μl of Dual-Glo® Stop & Glo® reagent into each well and incubate for 10 minutes before commencing with the same parameters as before to determine the RLU for the Renilla luciferase. • 15. The averaged reading for wells corresponding to non-transfected cells can be subtracted from each RLU reading and duplicate/triplicate readings can then be averaged. Normalization of the luminescence reading for each well can be carried out by dividing the firefly luciferase RLU with the corresponding Renilla luciferase RLU. Each drug-treated well can then be normalized against the averaged DMSO-treated well reading.
# T1 sequence (Q06219 whole entry): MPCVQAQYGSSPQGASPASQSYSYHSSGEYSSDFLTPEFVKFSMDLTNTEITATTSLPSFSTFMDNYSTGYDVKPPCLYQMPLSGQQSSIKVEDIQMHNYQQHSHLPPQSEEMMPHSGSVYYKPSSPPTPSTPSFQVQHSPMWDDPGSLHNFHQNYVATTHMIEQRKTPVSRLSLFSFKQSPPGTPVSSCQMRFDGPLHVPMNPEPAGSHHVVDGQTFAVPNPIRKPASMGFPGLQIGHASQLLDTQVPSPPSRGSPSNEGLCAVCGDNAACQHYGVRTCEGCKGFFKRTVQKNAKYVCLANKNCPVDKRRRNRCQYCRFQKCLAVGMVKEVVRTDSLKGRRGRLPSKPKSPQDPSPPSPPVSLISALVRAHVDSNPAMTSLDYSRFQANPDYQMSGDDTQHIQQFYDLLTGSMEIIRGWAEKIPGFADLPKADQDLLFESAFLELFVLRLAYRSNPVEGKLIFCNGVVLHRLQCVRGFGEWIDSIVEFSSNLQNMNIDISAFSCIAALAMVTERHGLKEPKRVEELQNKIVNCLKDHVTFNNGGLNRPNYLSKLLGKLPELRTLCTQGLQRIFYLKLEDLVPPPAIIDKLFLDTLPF
row,SMILES,Fold activity (1 uM)
1,"CCCCC[C@H](O)/C=C/[C@H]1[C@H](O)CC(=O)[C@@H]1CCCCCCC(=O)Nc1ccc(NC(=O)c2ccccc2)cc1 [Compound 3, N-(4-(7-((1R,2R,3R)-3-hydroxy-2-((S,E)-3-hydroxyoct-1-en-1-yl)-5-oxocyclopentyl)heptanamido)phenyl)benzamide]",B (1.1~2.0 (moderate))
2,"CC/C=C/C[C@H](O)/C=C/[C@H]1[C@H](O)CC(=O)[C@@H]1C/C=C\CCCC(=O)O (relative stereo) [Compound 78, 17-trans Prostaglandin E3]",A (above 2.0 (high activity))
3,"CCCCC[C@H](O)/C=C/[C@H]1[C@H](O)CC(=O)[C@@H]1CCCCCCC(=O)NOc1ccccc1 [Compound 9, 7-((1R,2R,3R)-3-hydroxy-2-((S,E)-3-hydroxyoct-1-enyl)-5-oxocyclopentyl)-N-phenoxyheptanamide]",A (above 2.0 (high activity))
4,"CCCCC[C@H](O)/C=C/[C@H]1[C@H](O)CC(=O)[C@@H]1CC(=O)CCCCC(=O)O [Compound 42, 6-keto Prostaglandin E1]",A (above 2.0 (high activity))
5,"CCCCC(C)(C)[C@@H](O)/C=C/[C@H]1[C@H](O)CC(=O)[C@@H]1CCCCCCC(=O)O [Compound 51, 16,16-dimethyl Prostaglandin E1]",A (above 2.0 (high activity))
6,"CCCCC[C@H](O)/C=C/[C@H]1[C@H](O)CC(=O)[C@@H]1CCCCCCC(=O)NCCO [Compound 18, Prostaglandin E1 Ethanolamide]",A (above 2.0 (high activity))
7,"CCCCC(C)(O)C/C=C/[C@H]1[C@@H](O)CC(=O)[C@@H]1CCCCCCC(=O)OC (stereo partly drawn) [Compound 81, 11β-Misoprostol]",C (below 1.0 (low activity))
8,"CCCCC[C@H](O)/C=C/[C@H]1[C@H](O)CC(=O)[C@@H]1CCCCCCC(=O)Oc1ccc(NC(=O)c2ccccc2)cc1 [Compound 1, 4-Benzamidophenyl-7-((1R,2R,3R)-3-hydroxy-2-((S,E)-3-hydroxyoct-1-enyl)-5-oxocyclopentyl)heptanoate]",A (above 2.0 (high activity))
9,"CCCCC[C@H](O)/C=C/[C@H]1[C@H](O)CC(=O)[C@@H]1CCCCCCC(=O)Nc1ccc(Cl)cc1 [Compound 5, N-(4-chlorophenyl)-7-((1R,2R,3R)-3-hydroxy-2-((S,E)-3-hydroxyoct-1-enyl)-5-oxocyclopentyl)heptanamide]",A (above 2.0 (high activity))
10,"CCCCC(C)(C)[C@H](O)/C=C/[C@H]1[C@H](O)CC(=O)[C@@H]1C/C=C\CCCC(=O)O [Compound 69, 16,16-dimethyl Prostaglandin E2]",A (above 2.0 (high activity))
11,"CCCCC[C@H](O)/C=C/[C@H]1[C@H](O)CC(=O)[C@@H]1CCCCCCCCC(=O)O [Compound 34, 1a,1b-dihomo Prostaglandin E1]",B (1.1~2.0 (moderate))
12,"C[C@@H](O)CCC[C@H](O)/C=C/[C@H]1[C@H](O)CC(=O)[C@@H]1C/C=C\CCCC(=O)O [Compound 54, 19(R)-hydroxy Prostaglandin E2]",A (above 2.0 (high activity))
13,"CCCCC[C@H](O)C/C=C1/C(=O)C[C@H](O)[C@@H]1C/C=C\CCCC(=O)O [Compound 41, D12-Prostaglandin D2]",C (below 1.0 (low activity))
14,"CCCCC[C@H](O)/C=C/[C@H]1C(=O)C[C@H](O)[C@@H]1C/C=C\CCCC(=O)NC(CO)CO [Compound 32, Prostaglandin D2 serinol amide]",C (below 1.0 (low activity))
15,"CCCCC[C@H](O)/C=C/[C@H]1[C@H](O)CC(=O)[C@@H]1CCCCCCC(=O)Nc1cccc(C(=O)Nc2ccccc2)c1 [Compound 6, 3-(7-((1R,2R,3R)-3-hydroxy-2-((S,E)-3-hydroxyoct-1-enyl)-5-oxocyclopentyl)heptanamido)-N-phenylbenzamide]",B (1.1~2.0 (moderate))
16,"CCCCC[C@H](O)/C=C/[C@H]1[C@H](O)CC(=O)[C@@H]1C/C=C/CCCC(=O)Oc1ccc(NC(C)=O)cc1 [Compound 44, Prostaglandin E2 p-acetamidophenyl ester]",A (above 2.0 (high activity))

row,SMILES,Fold activity (1 uM)
1,"CCCCCC(=O)/C=C/[C@H]1C(O)CC(=O)[C@H]1C/C=C\CCCC(=O)O (some centres unmarked) [Compound 82, 8-iso-15-keto Prostaglandin E2]",B (1.1~2.0 (moderate))
2,"CCCCC[C@H](O)/C=C/[C@@H]1[C@@H](C/C=C\CCCC(=O)O)[C@@H](O)C[C@H]1O.NC(CO)(CO)CO [Compound 92, DinoprostTromethanol]",B (1.1~2.0 (moderate))
3,"CCCCC[C@@](C)(O)/C=C/[C@H]1C(=O)C[C@H](O)[C@@H]1C/C=C\CCCC(=O)O [Compound 49, 15(R)-15-methyl Prostaglandin D2]",C (below 1.0 (low activity))
4,"CCCCC[C@H](O)/C=C/[C@H]1[C@H](O)CC(=O)[C@@H]1CCCCCCC(=O)Nc1ccccc1 [Compound 4, 7-((1R,2R,3R)-3-hydroxy-2-((S,E)-3-hydroxyoct-1-enyl)-5-oxocyclopentyl)-N-phenylheptanamide]",A (above 2.0 (high activity))
5,"CCCCC(C)(O)C/C=C/[C@H]1[C@H](O)CC(=O)[C@@H]1CCCCCCC(=O)O (mixture of isomers) [Compound 94, Misoprostol acid]",B (1.1~2.0 (moderate))
6,"CCCCC[C@H](O)/C=C/[C@H]1[C@H](O)CC(=O)[C@@H]1C/C=C/CCCC(=O)O (relative stereo) [Compound 60, 5-trans Prostaglandin E2]",B (1.1~2.0 (moderate))
7,"CCCCCC(=O)/C=C/[C@H]1[C@H](O)CC(=O)[C@@H]1C/C=C\CCCC(=O)O [Compound 45, 15-keto Prostaglandin E2]",B (1.1~2.0 (moderate))
8,"CCCCC[C@H](O)/C=C/[C@H]1[C@H](O)CC(=O)[C@@H]1CCCCC(=O)O [Compound 93, 2,3-DINOR PGE1]",C (below 1.0 (low activity))
9,"CCCCCC(=O)CCC1C(O)CC(=O)C1CCCCCCC(=O)O (centres unmarked) [Compound 74, 13,14-dihydro-15-keto Prostaglandin E1]",B (1.1~2.0 (moderate))
10,"CCCCC[C@H](O)/C=C/[C@H]1[C@H](O)CC(=O)[C@@H]1C/C=C\CCCC(=O)NC(CO)CO [Compound 40, Prostaglandin E2 serinol amide]",C (below 1.0 (low activity))
11,"CNC(=O)CCC/C=C\C[C@@H]1[C@@H](/C=C/[C@@H](O)CCc2ccccc2)[C@H](O)C[C@@H]1O [Compound 80, 17-phenyl trinor PGF2a methyl amide]",C (below 1.0 (low activity))
12,"CCCCC[C@H](O)/C=C/[C@H]1[C@H](O)CC(=O)[C@@H]1C/C=C\CCCC(=O)Oc1ccc(NC(=O)c2ccccc2)cc1 [Compound 52, Prostaglandin E2 p-benzamidophenyl ester]",A (above 2.0 (high activity))
13,"CCCCC[C@@H](O)/C=C/[C@H]1C(=O)C[C@H](O)[C@@H]1C/C=C\CCCC(=O)O [Compound 16, 15(R)-Prostaglandin D2]",A (above 2.0 (high activity))
14,"O=C(O)CCCCCCC1C(=O)NC(=O)N1CCC(O)C1CCCCC1 (centres unmarked) [Compound 90, BW245C]",A (above 2.0 (high activity))
15,"CCCCC[C@H](O)/C=C/[C@H]1[C@H](O)CC(=O)[C@@H]1C/C=C\CCCC(=O)OC [Compound 28, Prostaglandin E2 methyl ester]",A (above 2.0 (high activity))
16,"O=C(O)CCCCC(=O)CC[C@H]1[C@H](O)CC(=O)[C@@H]1CCC(=O)O [Compound 46, tetranor-PGEM]",C (below 1.0 (low activity))
